Measurements from patent US11304919B2, “Utilization of cilastatin in inhibiting renal disorder” (NIIGATA UNIVERSITY, priority 2018, dated 2022).

Tests used:
[1] = system: protein (carrier) used in Reference Example 5; conditions: 0-50 mM cilastatin; 10 mM iomeprol, ioversol, iodixanol, iopromide or iohexol solid-phased beads; FIGS. 22-26
Procedure: Different solutions, as mentioned below, were prepared using 100 mM KCL buffer (as mentioned in Reference Example 4) and the protein used in Reference Example 5, and were reacted at 4° C. for 2 hours.
a) Solution containing 25 ng/μL of the protein of interest and 0 mM of the contrast medium
b) Solution containing 25 ng/μL of the protein of interest and 10 mM of the contrast medium
c) Solution containing 25 ng/μL of the protein of interest and 25 mM of the contrast medium
d) Solution containing 25 ng/μL of the protein of interest and 50 mM of the contrast medium
Next, the above-prepared solutions were each added to 5 mg of the 0 mM or 10 mM contrast solid-phased beads dispersed and washed by the procedure described in Reference Example 4, and were reacted at 4° C. for 4 hours. The solution/beads combinations adopted were as mentioned below.
Then, the different mixtures were treated by following the procedure described in Reference Example 4, and heat-eluted samples were prepared from the different reaction solutions.
Different solutions, as mentioned below, were prepared using 100 mM KCL buffer (as mentioned in Reference Example 4), and were reacted at 4° C. for 2 hours.
a′) Solution containing 25 ng/μL of the protein of interest and 0 mM of cilastatin
b′) Solution containing 25 ng/μL of the protein of interest and 10 mM of cilastatin […]

[2] = biological target: megalin (Rattus norvegicus, UniProt P98158); conditions: 1 mg cilastatin injected in advance; 1.5 μg protein of interest; FIG. 27
Procedure: According to the method of Orlando, et al, megalin protein purified from Sprague-Dawley (SD) rat kidneys was immobilized on quartz crystals. To be specific, with the use of an immobilization kit for AFFNIX® (Initium Inc.) and according to the recommended protocol for the kit, a megalin protein solution was prepared in Buffer A as provided with the kit to a concentration of 62.5 μg/mL, and placed and immobilized onto quartz crystals mounted in a holder.
More specifically, the protein of interest was injected in aliquots of the megalin protein-immobilized quartz crystals in 200 μL of buffer to measure frequency. The same measurement was done on quartz crystals, as a control, on which the same amount of bovine serum albumin (BAS) was solid phased instead of megalin. Thus, the specific binding ability of the protein of interest to megalin was analyzed.
Further, aliquots of megalin protein-immobilized quartz crystals in a buffer in which 1 mg of cilastatin was injected in advance were mounted in the measurement instrument, and the frequency was confirmed to be stable, and then, 1.5 μg of the protein of interest was injected to measure frequency over time, whereby the antagonizing activity of cilastatin against the binding of the protein of interest to megalin was analyzed. The same experiment was performed for the control group.

[3] = system: C57BL/6J mice; assay: Inhibition of contrast-induced renal injuries in murine contrast nephropathy model (Example 2); assay type: in vivo, mouse; conditions: 200 μL iomeprol + 400 mg/kg cilastatin
Procedure: In order to confirm the ability of cilastatin to inhibit renal injuries, C57BL/6J mice were simultaneously administered with an iodinated contrast medium and cilastatin, and the results were analyzed.
Left kidneys were extracted from the C57BL/6J mice, and 14 days later, right kidney pedicles were ligated for 30 minutes. Thereafter, reperfusion was carried out. […]
a) Contrast medium+cilastatin-treated group: 200 μL of iomeprol (CM)+400 mg/kg cilastatin (CS) (100 LL) b) Contrast medium+normal saline-treated group: 200 μL of iomeprol (CM)+100 μL of NS For each of the groups, after 48 hours from the medication, blood and urine samples were collected, and serum Cr, MN and cystatin C levels, and urinary Cr, NAG and KIM-1 levels were measured. Further, right kidneys were extracted and histologically evaluated by immunostaining with KIM-1 and staining with PAS. […] Serum cystatin C and urinary KIM-1 measurements were contracted to Oriental Yeast Co., Ltd.
0.5±: Clear but weak granular staining present focally along the luminal surface of non-atrophic proximal tubules 1+: Clear but weak granular staining completely surrounding the luminal surface of non-atrophic proximal tubules 2+: Moderately intense granular staining completely surrounding the luminal surface of non-atrophic proximal tubules and extending into intercellular junctions 3+: Strong large granular staining completely surrounding the luminal surface of non-atrophic proximal tubules and extending into intercellular junctions […]
Individuals meeting these criteria were regarded as individuals with onset of contrast nephropathy.

[4] = biological target: T1, megalin (Mus musculus, UniProt A2ARV4)
Excerpt: In this example, it was verified, using an electron probe microanalyzer (EPMA), whether megalin-dependent internalization of contrast media (iodine) into murine renal proximal tubular epithelial cells was inhibited by treatment with cilastatin.
C57BL/6J mice were divided into the following groups and administered with the following agents from the tail vein.
Therefore, by calculating a ratio of X-ray intensity between iodine (I) and nitrogen (N) (I/N) in a specified area of thin-film biological samples, iodine (I) levels in different samples can be relatively quantified and compared. X-ray count ratio=(X-ray count of iodine/unit area)/(X-ray count of nitrogen/(unit area))
Based on this principle, iodine levels in a specified area were relatively quantified and compared.
Further, 1980 μm^2 regions containing cortex portions were analyzed, and seven 500 μm^2 areas were chosen from the cortex portions so as not to overlap with each other. An average was calculated of the I/N X-ray ratios in the seven areas, and regarded as an I/N X-ray ratio for one individual. Those I/N X-ray ratios for six individuals in each of the a) and b) groups were quantified and compared.

[5] = biological target: T1, megalin; conditions: in vivo
Excerpt: (§1) EPMA is an electron microprobe (EMP) instrument that analyzes the constituent elements of a substance of interest by irradiating electron beams onto the substance and measuring the wavelengths and intensities of characteristic X-rays unique to the different elements, which are generated by the electron beams. […] The behaviors of contrast media per se can be verified by analyzing iodine content distribution.
(§2) In order to use right kidneys for analysis, 3 mm-thick sections containing a kidney pedicle portion were prepared, embedded in OCT compound, freeze-fixed with liquid nitrogen, and stored at −80° C.
(§3) Next, the stored sections were sliced at a thickness of 4 μm using a cryostat (CM1850, Leica Biosystems), and the obtained slices were attached onto carbon-coated grids and freeze-dried overnight.
(§4) 378 μm^2 cortical areas in the prepared tissue slices were analyzed by EPMA (EPMA 1610, Shimadzu Corporation, Kyoto, Japan) to map iodine present in the structures of the contrast media.

[6] = system: megalin; conditions: mouse, in vivo
Excerpt: as §1, §2, §3, §4

T1 sequence (A2ARV4 26-4660): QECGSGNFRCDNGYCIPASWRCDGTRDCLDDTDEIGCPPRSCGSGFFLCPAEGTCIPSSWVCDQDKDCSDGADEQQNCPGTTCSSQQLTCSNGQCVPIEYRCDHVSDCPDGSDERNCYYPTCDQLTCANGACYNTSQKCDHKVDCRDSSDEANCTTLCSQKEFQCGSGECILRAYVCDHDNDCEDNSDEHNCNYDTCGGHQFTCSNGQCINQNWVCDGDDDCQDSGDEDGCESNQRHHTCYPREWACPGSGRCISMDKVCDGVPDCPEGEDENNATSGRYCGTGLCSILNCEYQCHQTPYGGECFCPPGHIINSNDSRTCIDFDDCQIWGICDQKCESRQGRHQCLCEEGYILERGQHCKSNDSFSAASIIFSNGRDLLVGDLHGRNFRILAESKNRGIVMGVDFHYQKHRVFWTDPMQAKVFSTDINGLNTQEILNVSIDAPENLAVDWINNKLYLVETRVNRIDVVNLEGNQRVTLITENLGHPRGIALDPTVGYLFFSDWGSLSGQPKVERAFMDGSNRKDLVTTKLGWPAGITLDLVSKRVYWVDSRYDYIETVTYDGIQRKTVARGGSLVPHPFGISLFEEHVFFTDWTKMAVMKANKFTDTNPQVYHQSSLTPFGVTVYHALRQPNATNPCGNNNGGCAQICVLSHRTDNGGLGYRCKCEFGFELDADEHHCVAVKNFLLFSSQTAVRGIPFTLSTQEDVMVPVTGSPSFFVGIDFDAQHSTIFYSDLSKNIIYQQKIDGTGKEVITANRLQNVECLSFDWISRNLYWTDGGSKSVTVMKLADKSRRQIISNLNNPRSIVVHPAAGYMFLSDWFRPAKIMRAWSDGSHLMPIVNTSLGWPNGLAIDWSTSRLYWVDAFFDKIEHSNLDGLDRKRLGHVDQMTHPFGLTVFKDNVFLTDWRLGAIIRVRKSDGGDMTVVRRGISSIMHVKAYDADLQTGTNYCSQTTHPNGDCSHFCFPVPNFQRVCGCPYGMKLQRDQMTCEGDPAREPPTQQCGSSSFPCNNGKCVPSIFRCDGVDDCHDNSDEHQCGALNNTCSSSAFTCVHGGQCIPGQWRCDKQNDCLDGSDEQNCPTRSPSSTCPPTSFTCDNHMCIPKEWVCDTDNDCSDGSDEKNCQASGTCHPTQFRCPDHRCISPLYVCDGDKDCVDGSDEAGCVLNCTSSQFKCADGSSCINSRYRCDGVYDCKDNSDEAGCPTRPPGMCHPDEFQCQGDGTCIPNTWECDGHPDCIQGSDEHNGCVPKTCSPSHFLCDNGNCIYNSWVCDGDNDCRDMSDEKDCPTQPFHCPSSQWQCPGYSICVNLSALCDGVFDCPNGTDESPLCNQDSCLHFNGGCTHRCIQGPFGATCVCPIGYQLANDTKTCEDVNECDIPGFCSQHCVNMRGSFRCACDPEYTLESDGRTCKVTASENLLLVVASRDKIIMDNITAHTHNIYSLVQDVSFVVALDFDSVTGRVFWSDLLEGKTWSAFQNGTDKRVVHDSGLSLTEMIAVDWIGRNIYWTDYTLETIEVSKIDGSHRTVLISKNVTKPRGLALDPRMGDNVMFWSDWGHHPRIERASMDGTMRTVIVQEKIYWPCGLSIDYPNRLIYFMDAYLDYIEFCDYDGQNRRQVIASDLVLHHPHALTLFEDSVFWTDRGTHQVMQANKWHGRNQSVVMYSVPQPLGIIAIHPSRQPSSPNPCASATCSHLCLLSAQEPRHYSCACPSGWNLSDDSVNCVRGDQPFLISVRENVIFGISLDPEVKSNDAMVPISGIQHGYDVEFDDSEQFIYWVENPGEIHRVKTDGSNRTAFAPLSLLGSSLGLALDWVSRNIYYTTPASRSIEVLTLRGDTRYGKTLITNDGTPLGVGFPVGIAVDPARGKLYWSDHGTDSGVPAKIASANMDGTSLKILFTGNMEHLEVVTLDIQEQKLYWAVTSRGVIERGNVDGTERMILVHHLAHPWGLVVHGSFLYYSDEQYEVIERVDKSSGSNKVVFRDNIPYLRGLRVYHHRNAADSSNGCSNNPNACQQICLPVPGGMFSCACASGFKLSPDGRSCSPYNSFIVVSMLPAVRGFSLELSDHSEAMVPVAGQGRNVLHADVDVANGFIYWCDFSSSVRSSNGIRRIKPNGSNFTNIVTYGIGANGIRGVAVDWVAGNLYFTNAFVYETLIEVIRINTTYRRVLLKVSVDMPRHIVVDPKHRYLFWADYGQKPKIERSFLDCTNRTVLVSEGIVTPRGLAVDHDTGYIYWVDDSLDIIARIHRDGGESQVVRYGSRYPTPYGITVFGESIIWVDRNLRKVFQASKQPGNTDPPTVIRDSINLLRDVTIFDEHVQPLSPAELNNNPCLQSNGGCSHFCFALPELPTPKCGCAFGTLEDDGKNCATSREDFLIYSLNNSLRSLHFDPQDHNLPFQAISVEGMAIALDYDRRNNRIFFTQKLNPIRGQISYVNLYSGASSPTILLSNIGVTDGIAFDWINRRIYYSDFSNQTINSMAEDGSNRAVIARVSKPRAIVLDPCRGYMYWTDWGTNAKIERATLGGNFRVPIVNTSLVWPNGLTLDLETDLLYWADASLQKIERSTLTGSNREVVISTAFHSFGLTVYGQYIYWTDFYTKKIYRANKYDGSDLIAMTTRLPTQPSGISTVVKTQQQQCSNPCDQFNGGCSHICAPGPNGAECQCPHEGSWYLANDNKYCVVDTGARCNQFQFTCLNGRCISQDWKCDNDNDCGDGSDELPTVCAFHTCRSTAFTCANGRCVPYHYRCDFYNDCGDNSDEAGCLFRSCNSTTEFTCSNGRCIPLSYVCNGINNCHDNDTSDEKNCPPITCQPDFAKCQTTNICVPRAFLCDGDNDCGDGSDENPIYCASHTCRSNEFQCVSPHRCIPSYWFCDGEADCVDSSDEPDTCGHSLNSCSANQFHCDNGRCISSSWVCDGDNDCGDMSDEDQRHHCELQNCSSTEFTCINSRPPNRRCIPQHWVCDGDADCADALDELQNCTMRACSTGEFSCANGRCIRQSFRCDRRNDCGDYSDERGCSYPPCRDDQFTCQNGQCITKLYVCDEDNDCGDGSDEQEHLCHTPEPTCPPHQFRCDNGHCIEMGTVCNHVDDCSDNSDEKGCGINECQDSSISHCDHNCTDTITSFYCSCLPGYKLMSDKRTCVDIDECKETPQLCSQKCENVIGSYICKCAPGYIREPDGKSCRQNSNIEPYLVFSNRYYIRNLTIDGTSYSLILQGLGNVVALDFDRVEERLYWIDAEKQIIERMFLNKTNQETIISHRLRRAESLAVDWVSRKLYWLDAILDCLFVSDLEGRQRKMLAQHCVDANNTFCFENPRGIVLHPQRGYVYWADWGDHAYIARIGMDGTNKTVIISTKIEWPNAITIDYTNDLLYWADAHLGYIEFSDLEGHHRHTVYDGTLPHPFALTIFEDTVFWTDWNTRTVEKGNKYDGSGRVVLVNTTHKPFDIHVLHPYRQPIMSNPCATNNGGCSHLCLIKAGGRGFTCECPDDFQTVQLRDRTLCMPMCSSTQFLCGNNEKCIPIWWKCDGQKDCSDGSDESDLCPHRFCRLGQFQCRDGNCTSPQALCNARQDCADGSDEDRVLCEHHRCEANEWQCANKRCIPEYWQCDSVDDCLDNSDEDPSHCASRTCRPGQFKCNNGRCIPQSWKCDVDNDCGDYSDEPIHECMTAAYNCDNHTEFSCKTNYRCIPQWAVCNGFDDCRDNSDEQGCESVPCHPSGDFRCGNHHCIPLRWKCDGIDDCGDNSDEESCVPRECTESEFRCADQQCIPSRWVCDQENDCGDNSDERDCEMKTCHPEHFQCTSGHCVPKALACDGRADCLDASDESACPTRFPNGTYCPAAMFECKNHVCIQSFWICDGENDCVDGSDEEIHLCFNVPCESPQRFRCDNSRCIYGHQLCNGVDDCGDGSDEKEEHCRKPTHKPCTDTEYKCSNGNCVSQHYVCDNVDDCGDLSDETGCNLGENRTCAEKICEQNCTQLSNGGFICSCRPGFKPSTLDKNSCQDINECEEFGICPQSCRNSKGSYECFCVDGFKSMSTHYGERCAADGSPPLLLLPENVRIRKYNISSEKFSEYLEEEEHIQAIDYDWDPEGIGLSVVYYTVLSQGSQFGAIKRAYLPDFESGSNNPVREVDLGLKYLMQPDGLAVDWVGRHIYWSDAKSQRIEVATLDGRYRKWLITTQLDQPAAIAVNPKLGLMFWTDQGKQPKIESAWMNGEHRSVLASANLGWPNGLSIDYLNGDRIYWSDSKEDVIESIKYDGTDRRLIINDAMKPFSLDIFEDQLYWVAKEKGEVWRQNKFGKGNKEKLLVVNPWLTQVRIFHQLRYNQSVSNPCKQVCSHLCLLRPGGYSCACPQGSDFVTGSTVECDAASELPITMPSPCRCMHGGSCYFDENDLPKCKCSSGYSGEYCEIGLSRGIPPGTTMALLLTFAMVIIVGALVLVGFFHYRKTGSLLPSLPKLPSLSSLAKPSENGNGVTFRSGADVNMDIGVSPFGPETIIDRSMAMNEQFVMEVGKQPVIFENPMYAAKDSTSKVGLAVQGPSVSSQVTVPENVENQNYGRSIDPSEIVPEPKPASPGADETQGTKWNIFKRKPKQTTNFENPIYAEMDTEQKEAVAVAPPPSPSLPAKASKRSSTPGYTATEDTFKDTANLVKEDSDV

| SMILES | iodine contents detected in kidney slices by EPMA, NDRG1-Cre mice versus control mice [6] | iodine detected in kidney slices by EPMA, control mice [5] | other results |
| --- | --- | --- | --- |
| CC1(C)C[C@@H]1C(=O)N/C(=C\CCCCSC[C@H](N)C(=O)O)C(=O)O [cilastatin, (Z)-7-[[(R)-2-amino-2-carboxyethyl]thio]-2-[[[(S)-2,2-dimethylcyclopropyl]carbonyl]amino]-2-heptenoic acid] | – | – | band corresponding to the protein of interest bound to contrast-bound beads, in the coexistence of cilastatin [1]: decreased; change in frequency after injection of the protein of interest onto megalin-immobilized quartz crystals (QCM) [2]: reduced; increase in urinary KIM-1 levels versus contrast medium+normal saline group ([3]; 48 h, FIG. 16): significantly (t-test) reduced; percentage of individuals with onset of contrast nephropathy ([3]; 48 h after medication): 0%; expression of KIM-1 in kidney tissue (staining intensity scores) versus contrast medium+normal saline group ([3]; outer cortices (S1 and S2 segments), FIG. 18): significantly (t-test) lower; detection of iodine by EPMA in kidney tissue versus contrast medium+normal saline groups ([4]; 400 mg/kg cilastatin + 100 μL contrast medium, tail vein, FIG. 11 (iomeprol)): decrease in the detection of iodine; I/N X-ray ratio in kidney cortex versus contrast medium+normal saline groups ([4]; 400 mg/kg cilastatin + 100 μL iomeprol, iohexol, ioversol or iodixanol, six individuals per group, FIGS. 12 to 15): significantly (t-test) lower |
| CC(=O)N(CC(O)CN(C(C)=O)c1c(I)c(C(=O)NCC(O)CO)c(I)c(C(=O)NCC(O)CO)c1I)c1c(I)c(C(=O)NCC(O)CO)c(I)c(C(=O)NCC(O)CO)c1I (stereo not shown) [iodixanol] | lower | High concentrations of iodine were detected | – |
| CC(=O)N(CC(O)CO)c1c(I)c(C(=O)NCC(O)CO)c(I)c(C(=O)NCC(O)CO)c1I (stereo not shown) [iohexol] | lower | High concentrations of iodine were detected | – |
| C[C@H](O)C(=O)Nc1c(I)c(C(=O)NC(CO)CO)c(I)c(C(=O)NC(CO)CO)c1I [iopamidol] | lower | High concentrations of iodine were detected | – |

Second part, led by results:

| iodine contents detected in kidney slices by EPMA, NDRG1-Cre mice versus control mice [6] | SMILES | iodine detected in kidney slices by EPMA, control mice [5] | other results |
| --- | --- | --- | --- |
| lower | COCC(=O)Nc1c(I)c(C(=O)NCC(O)CO)c(I)c(C(=O)N(C)CC(O)CO)c1I (stereo not shown) [iopromide] | High concentrations of iodine were detected | – |
| lower | O=C(NCC(O)CO)c1c(I)c(C(=O)NCC(O)CO)c(I)c(N(CCO)C(=O)CO)c1I (stereo not shown) [ioversol] | – | – |
